From ChEMBL document CHEMBL3758094, “Thioxocoumarins Show an Alternative Carbonic Anhydrase Inhibition Mechanism Compared to Coumarins” (J Med Chem, 2016)

Tests used:
Carbonic anhydrase 2 = Carbonic anhydrase 2 (Homo sapiens, UniProt P00918); test: Inhibition of human carbonic anhydrase 2 by Stopped-Flow CO2 Hydrase assay
Carbonic anhydrase 1 = Carbonic anhydrase 1 (Homo sapiens, UniProt P00915); test: Inhibition of human carbonic anhydrase 1 by Stopped-Flow CO2 Hydrase assay
Carbonic anhydrase 9 = Carbonic anhydrase 9 (Homo sapiens, UniProt Q16790)
Carbonic anhydrase 12 = Carbonic anhydrase 12 (Homo sapiens, UniProt O43570)
Chain of Carbonic anhydrase 12 (O43570 whole entry): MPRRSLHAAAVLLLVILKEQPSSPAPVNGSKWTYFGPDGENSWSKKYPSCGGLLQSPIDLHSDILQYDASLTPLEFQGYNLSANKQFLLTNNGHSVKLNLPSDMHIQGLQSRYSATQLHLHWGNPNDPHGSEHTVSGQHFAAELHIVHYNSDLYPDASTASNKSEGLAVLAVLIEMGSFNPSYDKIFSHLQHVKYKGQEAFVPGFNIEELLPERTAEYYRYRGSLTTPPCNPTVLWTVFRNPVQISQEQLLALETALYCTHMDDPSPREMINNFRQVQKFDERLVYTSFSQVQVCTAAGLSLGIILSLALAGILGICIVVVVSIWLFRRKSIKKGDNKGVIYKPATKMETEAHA

Chain of Carbonic anhydrase 1 (P00915 whole entry): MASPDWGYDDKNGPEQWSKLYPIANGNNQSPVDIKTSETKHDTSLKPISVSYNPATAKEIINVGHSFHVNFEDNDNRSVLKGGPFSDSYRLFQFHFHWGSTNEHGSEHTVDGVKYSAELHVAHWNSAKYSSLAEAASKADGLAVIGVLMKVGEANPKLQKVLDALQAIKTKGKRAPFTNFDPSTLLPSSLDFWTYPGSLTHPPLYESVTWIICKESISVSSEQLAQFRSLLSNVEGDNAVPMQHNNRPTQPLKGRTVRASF

SMILES	Ki (Carbonic anhydrase 2) [µM]	Ki (Carbonic anhydrase 1) [µM]	Ki (Carbonic anhydrase 9) [µM]	Ki (Carbonic anhydrase 12) [µM]
Oc1ccc2ccc(=S)oc2c1	> 100			
C=CCOc1ccc2oc(=O)ccc2c1	> 100			
CC(C)(C)[Si](C)(C)Oc1ccc2oc(=O)ccc2c1	> 100			
CC(C)(C)[Si](C)(C)Oc1ccc2oc(=S)ccc2c1	> 100			
Oc1ccc2oc(=S)ccc2c1	285			
CC(C)(C)[Si](C)(C)Oc1ccc2ccc(=O)oc2c1	> 100			
CC(C)(C)[Si](C)(C)Oc1ccc2ccc(=S)oc2c1	> 100			
C=CCOc1cc(=O)oc2ccccc12	> 100			
C=CCOc1ccc2oc(=S)ccc2c1	> 100			
C=CCOc1ccc2ccc(=S)oc2c1	> 100			
C=CCOc1cc(=S)oc2ccccc12	> 100			
C#CCOc1ccc2ccc(=O)oc2c1	> 100	72		
C#CCCCOc1ccc2ccc(=O)oc2c1	> 100	124	0.83	0.37
O=c1ccc2ccc(OCc3cn(-c4ccccc4)nn3)cc2o1	> 100	> 200	0.008	
C#CCOc1ccc2ccc(=S)oc2c1	> 100	950	41.6	
S=c1ccc2ccc(OCc3cn(-c4ccccc4)nn3)cc2o1	> 100	> 200	0.004	
S=c1ccc2ccccc2o1	> 100	> 100	6.7	
S=c1ccc2ccccc2s1	> 100	> 100		
C#CCCCOc1ccc2ccc(=S)oc2c1	> 100	> 200	0.22	
O=c1ccc2ccccc2s1	> 100	> 100		
O=c1cc(O)c2ccccc2o1 [4-HYDROXYCOUMARINS]	> 100	95	0.41	6.3
O=c1ccc2cc(O)ccc2o1 [6-HYDROXYCOUMARIN]	> 100	> 100	0.19	0.68
C=CCOc1ccc2ccc(=O)oc2c1 [7-ALLYLOXYCOUMARIN]	> 100			
